Laboratory results published in patent US4322411A, “Anti-inflammatory nucleosides” (Burroughs Wellcome Co., priority 1980, dated 1982).
Like-named read-outs stand apart in the source and are kept apart here.

Tests used:
[1] = tested on: carrageenan pleurisy (3 hour pleural exudate volume); assay: Duration of action of anti-inflammatory activity (Carrageenan Pleurisy Assay); type: in vivo, rat; details: for duration of action (time of drug administration prior to carrageenan injection at which inhibition of 3 hour pleural exudate volume declined to 40%): single oral pretreating dose
Procedure: Following the procedure previously described by Vinegar et al. in Proc. Soc. Exp. Biol. Med., 143, 711 (1973) and recently modified (Vinegar et al., Eur. J. Rheum. Inflam. 1, 204 (1978)) the acute anti-inflammatory activity of 3-deazaadenosine was compared with that of known anti-inflammatory drugs. The average 3 hr exudate volume for each drug-treated group was determined and the % inhibition relative to solvent-fed control animals calculated, the ED50 (mg/kg of body wt) being the dose required to reduce the 3 hr exudate volume by 50%. There were 5 animals in each drug-treated group and the control group.
Duration of action of anti-inflammatory activity of 3-deazaadenosine
By means of the Carrageenan Pleurisy Assay of Example 1 the duration of action of the test compounds after a single oral pretreating dose was determined. For 3-deazaadenosine the effect lasted for 14.9 hours at 6 mg/kg (p.o.) whilst for aspirin (150 mg/kg p.o.) and acetaminophen (220 mg/kg p.o.) the effect lasted […] and 2 hours, respectively. This value represents the time (hours) of drug administration prior to the injection of carrageenan in which the inhibition of the 3 hour pleural exudate volume declined to 40%.

cyclooxygenase pathway = assay: Inhibition of prostaglandin metabolism in vitro, cyclooxygenase pathway; type: biochemical
[2] = tested on: carrageenan pleurisy (3 hr exudate volume); assay: Local anti-inflammatory activity: Carrageenan Pleurisy Assay (CPA), intrapleural; type: in vivo, rat; details: 3 hr Vol
From the text: Local Anti-Inflammatory Activity of 3-Deazaadenosine: Carrageenan Pleurisy Assay (CPA)
Following the procedure described by Vinegar et al., Eur. J. Rheum. Inflam. […] There were 5 animals in each drug-treated group and the control group.

[3] = Side effects (gastric damage, platelet aggregation, steroid side effects)
[4] = tested on: developing adjuvant arthritis; assay: Developing adjuvant arthritis; type: in vivo, rat; details: for ED50: Rattus norvegicus, po, 384 h, read-out: Developing Arthritis ED50 on Day 16
Procedure: (§1) There were 5 animals in each drug-treated group. For developing adjuvant arthritis the drugs were administered in the diet from day 1 to day 16. For established adjuvant arthritis the drugs were administered from day 21 to day 42.

Antipyretic activity = details: in vivo
lipoxygenase pathway = assay: Inhibition of prostaglandin metabolism in vitro, lipoxygenase pathway; type: biochemical
inflammation = assay: Anti-inflammatory effectiveness by route; type: in vivo; details: result in words
Water solubility = type: physicochemical
Half life = details: in vivo
[5] = in vivo; cited from earlier work
Therapeutic index = details: in vivo
immune response = details: in vivo; cited from earlier work
liver = assay: Liver damage in animal models; type: in vivo; details: in the animal models used
Analgesic activity = details: in vivo
[6] = tested on: established adjuvant arthritis; assay: Established adjuvant arthritis; type: in vivo, rat; details: for ED25: Rattus norvegicus, po, 1008 h, read-out: Established Arthritis ED25 on Day 42
Procedure: as §1

With `Nc1nccc2c1ncn2[C@@H]1O[C@H](CO)[C@@H](O)[C@H]1O` [3-Deazaadenosine, 4-amino-1-β-D-ribofuranosyl-1H-imidazo[4,5-c]-pyridine] the “duration of action (time of drug administration prior to carrageenan injection at which inhibition of 3 hour pleural exudate volume declined to 40%)” value ([1]; 6 mg/kg p.o.) was 14.9 h, the duration of action ([1]; general statement, no dose given) was “about 15 hours” and the “inhibition of prostaglandin metabolism via cyclooxygenase pathway” value (cyclooxygenase pathway) was “does not inhibit”. The ED50 [2] was 0.05 mg/rat, the “side effects of the anti-inflammatory steroids” value [3] was “free of the side effects of the anti-inflammatory steroids” and the “side effects associated with prostaglandin inhibitors (gastric damage, inhibition of platelet aggregation)” value ([3]; inferred from lack of inhibition of prostaglandin metabolism) was “free of the side effects”. For the same compound, the ED50 ([4]; in diet from day 1 to day 16) was 8 ± 2.8 mg/kg, the “inhibition of developing adjuvant arthritis” value ([4]; result in words) was “inhibit both developing and established adjuvant arthritis” and the antipyretic activity (Antipyretic activity) was “not antipyretic”. For the same compound, the “inhibition of prostaglandin metabolism via lipoxygenase pathway” value (lipoxygenase pathway) was “does not inhibit”, the “anti-inflammatory effectiveness by route” value (inflammation) was “effective orally, systemically and locally” and the water solubility (Water solubility) was “high”. The half life (Half life) was “short”, the “dose required for antiviral activity” value [5] was 100-200 mg/kg per day and the therapeutic index (Therapeutic index) was “high”. For the same compound, the “dose required for immunesuppression” value (immune response) was “more than 30 mg/kg”, the liver damage (liver) was “does not cause liver damage” and the “analgesic activity per se” value (Analgesic activity) was “has not analgesic activity per se”. The ED25 ([6]; from day 21 to day 42, parentheses indicate an approximate value) was roughly 18 mg/kg/day and the “inhibition of established adjuvant arthritis” value ([6]; result in words) was “inhibit both developing and established adjuvant arthritis”.

For `CC(=O)Oc1ccccc1C(=O)O` [Aspirin, reference compound], the “duration of action (time of drug administration prior to carrageenan injection at which inhibition of 3 hour pleural exudate volume declined to 40%)” value ([1]; 150 mg/kg p.o.) was 35 h, the ED50 [2] was 0.04 mg/rat and the ED50 [4] was 150 ± 53.1 mg/kg. The ED25 [6] was less than 150 mg/kg/day.

`C[C@]12CCC(=O)C=C1CC[C@@H]1[C@@H]2[C@@H](O)C[C@@]2(C)[C@H]1CC[C@]2(O)C(=O)CO` [Hydrocortisone] showed an ED50 [2] of less than 0.1 mg/rat.

Compound `C[C@]12C=CC(=O)C=C1CC[C@@H]1[C@@H]2[C@@H](O)C[C@@]2(C)[C@H]1CC[C@]2(O)C(=O)CO` [Prednisolone, reference compound] has an ED50 [4] of 1 mg/kg and an ED25 [6] of 0.2 mg/kg/day.

With `CC(=O)Nc1ccc(O)cc1` [acetaminophen, reference compound] the “duration of action (time of drug administration prior to carrageenan injection at which inhibition of 3 hour pleural exudate volume declined to 40%)” value ([1]; 220 mg/kg p.o.) was 2 h and the liver damage (liver) was “cause liver damage”.
